# Measured values: patent US20040121307A1, “Early detection of cellular differentiation using optophoresis” (Genoptix, Inc, priority 2002, published 2004)
# Experiments:
# [1] = system: activated caspases in U937 cells; assay: Homogeneous Caspases Assay, Fluorimetric; type: cell-based; conditions: 4 μg/ml camptothecin, 300 cells/well
# Source text: Another assay that provides for even earlier detection of apoptotic events are assays that detect caspase activation. For example, the Homogeneous Caspases Assay, Fluorimetric (available from Roche, catalog no. 3005372), is able to detect caspase activation. […] The kit uses the substrate DEVD-Rhodamine 110 which is cleaved by activated caspases. When DEVD-Rhodamine 110 is cleaved, the released Rhodamine-110 molecule fluoresces upon excitation. By comparing the fluorescence from an apoptotic sample and an uninduced control, the increase in caspase activity can be quantified. While caspase assays do have the ability to detect relatively early apoptotic events, the assays require fluorometric enzyme substrates. Yet another experiment using U937 cells treated with 4 μg/ml camptothecin was carried out. In this experiment, the cells were subject to analysis using a caspase assay (Homogeneous Caspases Assay, Fluorimetric-available from Roche, catalog no. 3005372). The caspase assay is a fluorometric assay carried out in 96-well plates. […] Upon cleavage of the substrate by activated caspases, fluorescence of the released Rhodamine 110 is measured. […] FIG. 102 illustrates a graph of the relative fluorescence units (RFU) as a function of incubation times (hours) for the control (blank) as well as the camptothecin-treated cells.
# CEM/C2 cell line = conditions: cell lines obtained from ATCC; cited from earlier work
# U937 cells [2] = assay: Experiment 4: effect of camptothecin, escape velocity; type: cell-based; conditions: for escape velocity, Average: 0.04 μg/ml camptothecin
# Method: The objective of this experiment is to test the effects of camptothecin on the escape velocities of U937 cells. Camptothecin inhibits DNA topoisomerase I and induces apoptosis. A control and three concentrations of camptothecin were tested: […]. After adding the camptothecin, the flasks are incubated at 37° C. 5% CO2.
# At the timepoints of 4 hours and 6 hours, 200 μl of cells are spun for 5 minutes at 5000 rpm. The cells are then resuspended in […] PBS/1% BSA and […] trypan blue.
# Optophoretic techniques have been investigated for their potential to detect the early onset of apoptosis in mammalian cells. U.S. patent application Ser. No. 10,240,611, for example, discloses multiple experiments in which U937 cells were treated with camptothecin and subsequently monitored Optophoretically using measured escape velocities. In one experiment, the escape velocity of the camptothecin-treated cells were measured at 4 and 6 hours after treatment. Noticeable changes in escape velocity were seen as early as 4 hours after treatment (see, e.g., FIG. 34). In that experiment, U937 cells were treated with 4 μg/ml of camptothecin and resuspended in PBS/1% BSA. Escape velocity measurements were taken after 4 and 6 hours. Table 18, reproduced below, includes the results of the escape velocity measurements for the test cells as well as the controls.
# U937 cells [3] = assay: ApoAlert Annexin V assay (FACS); type: cell-based; conditions: 4 μg/ml camptothecin
# Method: Still other assays provide earlier indications of the onset of apoptosis. For example, commercially available assays, such as the ApoAlert Annexin V assay (available from CLONETECH) are able to detect changes in the plasma membrane by using a FITC conjugate of annexin V. The ApoAlert Annexin V assay is based on the observation that within about 6-10 hours after the onset of apoptosis, most cell types translocate phosphatidylserine (PS) from the inner face of the plasma membrane to the exterior of the cell surface. Once the PS is exposed on the exterior of the cell surface, the presence of PS can be detected using a FITC conjugate of annexin V. Fluorescence microscopy and flow cytometry can then be used to detect the binding of the FITC conjugate to the […]. While this assay does provide for relatively early detection of apoptotic events, the assay requires labeled annexin V markers as well as subsequent analysis by fluorescent microscopy or flow cytometry.
# Another experiment using U937 cells treated with 4 μg/ml camptothecin was also carried out. In this experiment, however, the cells were subject to analysis using an annexin V assay. The assay was performed using the ApoAlert Annexin V Apoptosis Kit (available from Clonetech, catalog no. K2025-1). […] Significant annexin V binding is seen later in the 3 and 4 hour time points. […]
# K562 Cells [4] = assay: Experiment 7: time and concentration dependence of paciltaxel, escape velocity; type: cell-based; parameters: escape velocity, Ave.: unit not given here
# Method: In this experiment, the effect of time and concentration of paciltaxel was tested using K562 cells. Paciltaxel is a chemotherapeutic agent whose mechanism of action is the […] and the subsequent disruption of the cytoskeleton in cells. The timepoints tested were 4 hours, 23 hours, 30 hours and 47 hours. The concentrations of paciltaxel used in the experiment were 10 nM, 1 nM, 100 pM, and 10 pM. At each timepoint, 300 μl of cells were removed from each sample and centrifuged for 5 minutes at 5,000 rpm. The cells were then resuspended in PBS/1% BSA and trypan blue.
# K562 Cells [5] = assay: Escape velocities of different cell types (1064 system, CYTOP coated coverslips); type: cell-based; conditions: 26 Hr. Taxol Treatment
# Source text: Certain of the data reported herein were generated with the following setup. Optical gradient fields were generated using a Michelson interferometer and either a 150 mW, 812 nm laser (812 system) or a 2.5 W, 1064 nm laser (1064 system). The 812 system used a 100× (1.25 NA) oil immersion lens to focus the fringe pattern and to visualize the sample. The 1064 system used a 20× objective to focus the fringes and a 60× objective to visualize the sample. In general the sample cell was a coated microscope slide and/or coverslip that was sealed with Vaseline. Coverslip spacers controlled the height of the cell at approximately 150 micrometers.
# Escape velocities were measured using a gradient field generated by the 1064 system on CYTOP coated coverslips.
smiles,measurement,setting,value
CC[C@@]1(O)C(=O)OCc2c1cc1n(c2=O)Cc2cc3ccccc3nc2-1 [camptothecin],time after administration at which caspase activity is detected,[1],> 4 h
same,fold less sensitive than parental CCRF-CEM,CEM/C2 cell line,970 fold
same,shift in escape velocity over time,"U937 cells [2]; 40 ng/ml camptothecin, 4 and 6 hours (FIG. 34)",shift to lower escape velocities over time
same,"escape velocity, Average",U937 cells [2]; 4 hours,10.16 μm/sec
same,"escape velocity, Average",U937 cells [2]; 6 hours,9.52 μm/sec
same,time at which the annexin V assay begins to detect the onset of apoptosis,U937 cells [3],2 h
CC(=O)O[C@H]1C(=O)[C@@]2(C)[C@H]([C@H](OC(=O)c3ccccc3)[C@]3(O)C[C@H](OC(=O)[C@H](O)[C@@H](NC(=O)c4ccccc4)c4ccccc4)C(C)=C1C3(C)C)[C@]1(OC(C)=O)CO[C@@H]1C[C@@H]2O [paciltaxel],"escape velocity, Ave.","K562 Cells [4]; 10 pM paciltaxel, 4 Hours",15.7
same,"escape velocity, Ave.","K562 Cells [4]; 10 pM paciltaxel, 23 Hours",15.7
same,"escape velocity, Ave.","K562 Cells [4]; 10 pM paciltaxel, 30 Hours",16.0
same,"escape velocity, Ave.","K562 Cells [4]; 10 pM paciltaxel, 47 Hours",16.2
same,optophoretic effect on cells,"K562 Cells [4]; 10 pM to 10 nM, 4 to 47 hours",both a time and dose dependent optophoretic effect
same,"escape velocity, Ave.","K562 Cells [4]; 100 pM paciltaxel, 4 Hours",15.9
same,"escape velocity, Ave.","K562 Cells [4]; 100 pM paciltaxel, 23 Hours",17.1
same,"escape velocity, Ave.","K562 Cells [4]; 100 pM paciltaxel, 30 Hours",17.6
same,"escape velocity, Ave.","K562 Cells [4]; 100 pM paciltaxel, 47 Hours",17.0
same,"escape velocity, Ave.","K562 Cells [4]; 1 nM paciltaxel, 4 Hours",15.6
same,"escape velocity, Ave.","K562 Cells [4]; 1 nM paciltaxel, 23 Hours",16.9
same,"escape velocity, Ave.","K562 Cells [4]; 1 nM paciltaxel, 30 Hours",16.9
same,"escape velocity, Ave.","K562 Cells [4]; 1 nM paciltaxel, 47 Hours",16.7
same,"escape velocity, Ave.","K562 Cells [4]; 10 nM paciltaxel, 4 Hours",15.3
same,"escape velocity, Ave.","K562 Cells [4]; 10 nM paciltaxel, 23 Hours",16.9
same,"escape velocity, Ave.","K562 Cells [4]; 10 nM paciltaxel, 30 Hours",17.4
same,"escape velocity, Ave.","K562 Cells [4]; 10 nM paciltaxel, 47 Hours",17.1
same,Escape Velocity,K562 Cells [5],8.2 +/− 0.4 um/sec.
